Source: ChEMBL document CHEMBL3639122, “Heteroarylcarboxylic acid ester derivative” (2015)

Columns and labels:
[1] = molecular target: Serine protease 1 (Homo sapiens, UniProt P07477); assay: Inhibition Assay: Using a 96 well plate (#3915, Costar), a test compound (25 μL) was mixed with 20 μM fluorescence enzyme substrate (Boc-Phe-Ser-Arg-AMC, 50 μL) mixed with 200 mM Tris-HCl buffer (pH 8.0), and human trypsin (Sigma, 25 μL) was added. Using a fluorescence plate reader fmax (Molecular Devices, Inc.), the reaction rate was measured from the time-course changes at excitation wavelength 355 nm and fluorescence wavelength 460 nm.
[2] = molecular target: Enteropeptidase (Homo sapiens, UniProt P98073); assay: Inhibition Assay: Using a 96 well plate (#3915, Costar), a test compound (25 μL), 400 mM Tris-HCl buffer (pH 8.0, 25 μL) and 0.5 mg/mL fluorescence enzyme substrate (Gly-Asp-Asp-Asp-Asp-Lys-β-Naphtylamide, 25 μL) were mixed, and recombinant human enteropeptidase (R&D Systems, Inc., 25 μL) was added. Using a fluorescence plate reader fmax (Molecular Devices, Inc.), the reaction rate was measured from the time-course changes at excitation wavelength 320 nm and fluorescence wavelength 405 nm.
Enteropeptidase, sequence (P98073 2-784 limits assumed): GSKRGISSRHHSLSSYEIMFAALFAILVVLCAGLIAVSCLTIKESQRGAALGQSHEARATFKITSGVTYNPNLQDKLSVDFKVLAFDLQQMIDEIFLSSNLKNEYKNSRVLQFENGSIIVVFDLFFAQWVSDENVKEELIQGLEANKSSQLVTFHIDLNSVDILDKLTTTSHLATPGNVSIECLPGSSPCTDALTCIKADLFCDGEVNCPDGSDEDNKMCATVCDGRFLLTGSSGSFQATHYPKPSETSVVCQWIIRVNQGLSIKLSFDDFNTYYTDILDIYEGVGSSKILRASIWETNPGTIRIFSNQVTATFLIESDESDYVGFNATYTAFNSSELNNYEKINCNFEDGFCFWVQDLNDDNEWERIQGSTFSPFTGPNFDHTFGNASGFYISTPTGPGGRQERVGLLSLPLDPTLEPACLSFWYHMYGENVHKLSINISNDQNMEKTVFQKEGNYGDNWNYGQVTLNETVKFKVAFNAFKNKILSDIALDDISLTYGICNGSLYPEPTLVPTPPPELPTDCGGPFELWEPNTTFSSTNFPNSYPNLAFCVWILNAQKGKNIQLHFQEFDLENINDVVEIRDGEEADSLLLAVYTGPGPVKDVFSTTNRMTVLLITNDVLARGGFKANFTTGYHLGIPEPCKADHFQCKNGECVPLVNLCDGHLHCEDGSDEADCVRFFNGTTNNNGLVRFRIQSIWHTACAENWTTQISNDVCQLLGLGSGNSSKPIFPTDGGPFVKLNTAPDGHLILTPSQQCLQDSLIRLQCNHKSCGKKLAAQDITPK
Enteropeptidase, sequence (P98073 785-1019 limits assumed): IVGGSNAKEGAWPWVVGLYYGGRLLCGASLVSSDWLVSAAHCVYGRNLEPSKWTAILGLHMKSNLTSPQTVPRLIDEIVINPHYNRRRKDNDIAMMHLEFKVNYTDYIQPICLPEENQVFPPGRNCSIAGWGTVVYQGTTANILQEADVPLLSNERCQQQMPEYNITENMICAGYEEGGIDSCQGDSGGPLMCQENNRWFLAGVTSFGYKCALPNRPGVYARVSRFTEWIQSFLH

Serine protease 1, sequence (P07477 whole entry): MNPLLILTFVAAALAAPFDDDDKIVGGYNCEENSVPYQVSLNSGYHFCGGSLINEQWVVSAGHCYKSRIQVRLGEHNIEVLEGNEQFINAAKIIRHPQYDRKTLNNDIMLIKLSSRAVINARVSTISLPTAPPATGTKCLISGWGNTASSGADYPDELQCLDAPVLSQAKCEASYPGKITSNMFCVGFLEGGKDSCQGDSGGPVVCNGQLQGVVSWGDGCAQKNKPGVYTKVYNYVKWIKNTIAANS

SMILES: CCC(CC)(Cc1ccc(C(=O)Oc2ccc(C(=N)N)cc2F)s1)C(=O)N[C@@H](CCC(=O)O)C(=O)O
- Ki [1]: 2.01 nM
- Ki [2]: 0.27 nM
